The values that follow are results of earlier work, collected in US20180027805A1, “ACID HERBICIDE-CONTAINING COMPOSITIONS, PRECURSORS, DERIVATIVES, AND METHODS” (priority 2015, published 2018).

Regarding `O=C(O)CCCOc1ccc(Cl)cc1Cl` [2,4-DB], the pKa (usually the pH at which an ionisable group is half protonated) was 4.8.

For `O=C(O)c1cc(Oc2ccc(C(F)(F)F)cc2Cl)ccc1[N+](=O)[O-]` [Acifluorfen], the pKa was 3.86.

On to `N#Cc1cc(Br)c(O)c(Br)c1` [Bromoxynil], for which the pKa was 4.06.

Turning to `COc1c(Cl)ccc(Cl)c1C(=O)O` [Dicamba, 3,6-dichloro-O-anisic acid], the pKa is 1.87.

As to `CC(Oc1ccc(Oc2ccc(Cl)cc2Cl)cc1)C(=O)O` (centres unmarked) [Diclofop], the pKa is 3.57.

As for `C[C@@H](Oc1ccc(Oc2ccc(C(F)(F)F)cn2)cc1)C(=O)O` [Fluazifop-p], the pKa is on record as 2.98.

In the case of `CC(Oc1ccc(Oc2ncc(C(F)(F)F)cc2Cl)cc1)C(=O)O` (centres unmarked) [Haloxyfop], the pKa was 4.33.

Consider `CC(C)C1(C)N=C(c2nc3ccccc3cc2C(=O)O)NC1=O` (centres unmarked) [Imazaquin], for which the pKa is listed as 3.8.

In the case of `Nc1c(Cl)c(Cl)nc(C(=O)O)c1Cl` [Picloram], the pKa is 2.3.

`O=C(O)COc1nc(Cl)c(Cl)cc1Cl` [Triclopyr, 3,5,6-trichloro-2-pyridyloxyacetic acid]: the pKa is 2.68.

For the compound Imazamethbenz, the pKa is 2.9.
